Test results taken from the NIST ThermoML archive (doi:10.1016/j.tca.2013.05.007).
Numbers after ± are expanded uncertainties.

What was measured:
[1] = DTA
[2] = molar heat capacity at constant pressure; conditions: 101.33 kPa, Liquid, Large sample (1 g) DSC

CC[n+]1cccc(C)c1.O=S(=O)([N-]S(=O)(=O)C(F)(F)F)C(F)(F)F
Conditions | Normal melting temperature [°C] | molar heat capacity at constant pressure [J/K/mol]
[1], Crystal | -1 ± 1 | –
[2], 293.15 K | – | 484 ± 49
[2], 294.15 K | – | 486 ± 49
[2], 295.15 K | – | 487 ± 49
[2], 296.15 K | – | 489 ± 49
[2], 297.15 K | – | 490 ± 50
[2], 298.15 K | – | 491 ± 50
[2], 299.15 K | – | 493 ± 50
[2], 300.15 K | – | 494 ± 50
[2], 301.15 K | – | 495 ± 50
[2], 302.15 K | – | 496 ± 50
[2], 303.15 K | – | 497 ± 50
[2], 304.15 K | – | 498 ± 50
[2], 305.15 K | – | 499 ± 50
[2], 306.15 K | – | 500 ± 51
[2], 307.15 K | – | 501 ± 51
[2], 308.15 K | – | 502 ± 51
[2], 309.15 K | – | 502 ± 51
[2], 310.15 K | – | 503 ± 51
[2], 311.15 K | – | 504 ± 51
[2], 312.15 K | – | 505 ± 51
[2], 313.15 K | – | 506 ± 51
[2], 314.15 K | – | 507 ± 51
[2], 315.15 K | – | 507 ± 51
[2], 316.15 K | – | 508 ± 51
[2], 317.15 K | – | 509 ± 51
[2], 318.15 K | – | 510 ± 52
[2], 319.15 K | – | 510 ± 52
[2], 320.15 K | – | 511 ± 52
[2], 321.15 K | – | 512 ± 52
[2], 322.15 K | – | 513 ± 52
[2], 323.15 K | – | 514 ± 52
[2], 324.15 K | – | 514 ± 52
[2], 325.15 K | – | 515 ± 52
[2], 326.15 K | – | 516 ± 52
[2], 327.15 K | – | 517 ± 52
[2], 328.15 K | – | 518 ± 52
[2], 329.15 K | – | 519 ± 52
[2], 330.15 K | – | 519 ± 52
[2], 331.15 K | – | 520 ± 53
[2], 332.15 K | – | 521 ± 53
[2], 333.15 K | – | 522 ± 53

CCCCn1cc[n+](C)c1.O=S(=O)([O-])C(F)(F)F [1-butyl-3-methylimidazolium trifluoromethanesulfonate]
Conditions | Normal melting temperature [°C] | molar heat capacity at constant pressure [J/K/mol]
[1], Crystal | 12 ± 1 | –
[2], 323.15 K | – | 456 ± 46
[2], 324.15 K | – | 457 ± 46
[2], 325.15 K | – | 458 ± 46
[2], 326.15 K | – | 459 ± 46
[2], 327.15 K | – | 460 ± 47
[2], 328.15 K | – | 461 ± 47
[2], 329.15 K | – | 462 ± 47
[2], 330.15 K | – | 463 ± 47
[2], 331.15 K | – | 464 ± 47
[2], 332.15 K | – | 465 ± 47
[2], 333.15 K | – | 466 ± 47
[2], 334.15 K | – | 467 ± 47
[2], 335.15 K | – | 467 ± 47
[2], 336.15 K | – | 468 ± 47
[2], 337.15 K | – | 469 ± 47
[2], 338.15 K | – | 470 ± 48
[2], 339.15 K | – | 471 ± 48
[2], 340.15 K | – | 472 ± 48
[2], 341.15 K | – | 473 ± 48
[2], 342.15 K | – | 474 ± 48
[2], 343.15 K | – | 475 ± 48
[2], 344.15 K | – | 476 ± 48
[2], 345.15 K | – | 477 ± 48
[2], 346.15 K | – | 477 ± 48
[2], 347.15 K | – | 478 ± 48
[2], 348.15 K | – | 479 ± 48
[2], 349.15 K | – | 480 ± 49
[2], 350.15 K | – | 481 ± 49
[2], 351.15 K | – | 481 ± 49
[2], 352.15 K | – | 482 ± 49
[2], 353.15 K | – | 483 ± 49

CCCC[n+]1cccc(C)c1.O=S(=O)([O-])C(F)(F)F [1-butyl-3-methylpyridinium trifluoromethanesulfonate]
Conditions | Normal melting temperature [°C] | molar heat capacity at constant pressure [J/K/mol]
[1], Crystal 1 | 30 ± 1 | –
[1], Metastable crystal | -6 ± 1 | –
[2], 323.15 K | – | 461 ± 47
[2], 324.15 K | – | 462 ± 47
[2], 325.15 K | – | 464 ± 47
[2], 326.15 K | – | 465 ± 47
[2], 327.15 K | – | 467 ± 47
[2], 328.15 K | – | 468 ± 47
[2], 329.15 K | – | 469 ± 47
[2], 330.15 K | – | 471 ± 48
[2], 331.15 K | – | 472 ± 48
[2], 332.15 K | – | 473 ± 48
[2], 333.15 K | – | 474 ± 48
[2], 334.15 K | – | 475 ± 48
[2], 335.15 K | – | 476 ± 48
[2], 336.15 K | – | 478 ± 48
[2], 337.15 K | – | 479 ± 48
[2], 338.15 K | – | 480 ± 49
[2], 339.15 K | – | 481 ± 49
[2], 340.15 K | – | 482 ± 49
[2], 341.15 K | – | 483 ± 49
[2], 342.15 K | – | 485 ± 49
[2], 343.15 K | – | 486 ± 49
[2], 344.15 K | – | 487 ± 49
[2], 345.15 K | – | 488 ± 49
[2], 346.15 K | – | 489 ± 49
[2], 347.15 K | – | 490 ± 50
[2], 348.15 K | – | 491 ± 50
[2], 349.15 K | – | 492 ± 50
[2], 350.15 K | – | 493 ± 50
[2], 351.15 K | – | 494 ± 50
[2], 352.15 K | – | 495 ± 50
[2], 353.15 K | – | 496 ± 50

Conditions | Glass transition temperature [°C]
[1] | -76 ± 2

CCCCn1cc[n+](C)c1.N#CN=C=[N-] [1-butyl-3-methylimidazolium dicyanamide]
Conditions | Normal melting temperature [°C] | Triple point temperature [K] | molar heat capacity at constant pressure [J/K/mol]
[1], Crystal 1 | -6 ± 1 | – | –
[1], Crystal 2 | – | 225 ± 1 | –
[2], 293.15 K | – | – | 372 ± 38
[2], 294.15 K | – | – | 373 ± 38
[2], 295.15 K | – | – | 374 ± 38
[2], 296.15 K | – | – | 375 ± 38
[2], 297.15 K | – | – | 375 ± 38
[2], 298.15 K | – | – | 376 ± 38
[2], 299.15 K | – | – | 377 ± 38
[2], 300.15 K | – | – | 377 ± 38
[2], 301.15 K | – | – | 378 ± 38
[2], 302.15 K | – | – | 378 ± 38
[2], 303.15 K | – | – | 379 ± 38
[2], 304.15 K | – | – | 379 ± 38
[2], 305.15 K | – | – | 380 ± 38
[2], 306.15 K | – | – | 380 ± 38
[2], 307.15 K | – | – | 381 ± 38
[2], 308.15 K | – | – | 381 ± 38
[2], 309.15 K | – | – | 382 ± 39
[2], 310.15 K | – | – | 382 ± 39
[2], 311.15 K | – | – | 382 ± 39
[2], 312.15 K | – | – | 383 ± 39
[2], 313.15 K | – | – | 383 ± 39
[2], 314.15 K | – | – | 384 ± 39
[2], 315.15 K | – | – | 384 ± 39
[2], 316.15 K | – | – | 384 ± 39
[2], 317.15 K | – | – | 385 ± 39
[2], 318.15 K | – | – | 385 ± 39
[2], 319.15 K | – | – | 385 ± 39
[2], 320.15 K | – | – | 386 ± 39
[2], 321.15 K | – | – | 386 ± 39
[2], 322.15 K | – | – | 387 ± 39
[2], 323.15 K | – | – | 387 ± 39
[2], 324.15 K | – | – | 388 ± 39
[2], 325.15 K | – | – | 388 ± 39
[2], 326.15 K | – | – | 388 ± 39
[2], 327.15 K | – | – | 389 ± 39
[2], 328.15 K | – | – | 389 ± 39
[2], 329.15 K | – | – | 390 ± 39
[2], 330.15 K | – | – | 390 ± 39
[2], 331.15 K | – | – | 391 ± 40
[2], 332.15 K | – | – | 391 ± 39
[2], 333.15 K | – | – | 392 ± 40

Conditions | Glass transition temperature [°C]
[1] | -92 ± 2

CCC[n+]1cccc(C)c1.O=S(=O)([N-]S(=O)(=O)C(F)(F)F)C(F)(F)F
Conditions | Glass transition temperature [°C]
[1] | -88 ± 2

[2]
Conditions | molar heat capacity at constant pressure [J/K/mol]
293.15 K | 510 ± 52
294.15 K | 511 ± 52
295.15 K | 513 ± 52
296.15 K | 514 ± 52
297.15 K | 516 ± 52
298.15 K | 517 ± 52
299.15 K | 518 ± 52
300.15 K | 519 ± 52
301.15 K | 520 ± 53
302.15 K | 521 ± 53
303.15 K | 522 ± 53
304.15 K | 523 ± 53
305.15 K | 524 ± 53
306.15 K | 525 ± 53
307.15 K | 526 ± 53
308.15 K | 527 ± 53
309.15 K | 528 ± 53
310.15 K | 529 ± 53
311.15 K | 530 ± 54
312.15 K | 531 ± 54
313.15 K | 532 ± 54
314.15 K | 532 ± 54
315.15 K | 533 ± 54
316.15 K | 534 ± 54
317.15 K | 535 ± 54
318.15 K | 536 ± 54
319.15 K | 536 ± 54
320.15 K | 537 ± 54
321.15 K | 538 ± 54
322.15 K | 539 ± 54
323.15 K | 540 ± 55
324.15 K | 541 ± 55
325.15 K | 541 ± 55
326.15 K | 542 ± 55
327.15 K | 543 ± 55
328.15 K | 544 ± 55
329.15 K | 545 ± 55
330.15 K | 546 ± 55
331.15 K | 547 ± 55
332.15 K | 548 ± 55
333.15 K | 549 ± 55

CCCC[n+]1cccc(C)c1.O=S(=O)([N-]S(=O)(=O)C(F)(F)F)C(F)(F)F
Conditions | Glass transition temperature [°C]
[1] | -85 ± 2

[2]
Conditions | molar heat capacity at constant pressure [J/K/mol]
293.15 K | 541 ± 55
294.15 K | 542 ± 55
295.15 K | 544 ± 55
296.15 K | 546 ± 55
297.15 K | 547 ± 55
298.15 K | 548 ± 55
299.15 K | 550 ± 56
300.15 K | 551 ± 56
301.15 K | 552 ± 56
302.15 K | 553 ± 56
303.15 K | 554 ± 56
304.15 K | 555 ± 56
305.15 K | 556 ± 56
306.15 K | 557 ± 56
307.15 K | 558 ± 56
308.15 K | 559 ± 56
309.15 K | 560 ± 57
310.15 K | 561 ± 57
311.15 K | 562 ± 57
312.15 K | 563 ± 57
313.15 K | 564 ± 57
314.15 K | 564 ± 57
315.15 K | 565 ± 57
316.15 K | 566 ± 57
317.15 K | 567 ± 57
318.15 K | 568 ± 57
319.15 K | 569 ± 57
320.15 K | 570 ± 58
321.15 K | 570 ± 58
322.15 K | 571 ± 58
323.15 K | 572 ± 58
324.15 K | 573 ± 58
325.15 K | 574 ± 58
326.15 K | 575 ± 58
327.15 K | 576 ± 58
328.15 K | 577 ± 58
329.15 K | 578 ± 58
330.15 K | 579 ± 59
331.15 K | 580 ± 59
332.15 K | 581 ± 59
333.15 K | 582 ± 59
